Measurements taken from publication PMC3363478, “Pharmacokinetics of micafungin in patients with severe burn injuries” (Critical Care, 2012).
Numbered stars: 1 amine (or outer) side, 2 acyl side, 3 side chain; on linkers, the order of the positions; unused ones are H or OH. Bridge positions count the residues as written; N and C are the ends. Square brackets hold non-standard residues; d marks the D form. Peptide text beside a SMILES is read from it. * marks the point of attachment. hTyr(3S-OH,4S-OH,3'-OSO3H) = N[C@H](C(=O)O)[C@H](O)[C@@H](O)c1ccc(O)c(OS(=O)(=O)O)c1; Orn(4R-OH,5R-OH) = O=C([C@H](C[C@@H](O)[C@@H](O)N[*:3])N[*:1])[*:2]; Pro(3S-OH,4S-Me) = C[C@H]1CN[C@H](C(=O)O)[C@H]1O; X1 = CCCCCOc1ccc(-c2cc(-c3ccc(C(=O)*)cc3)no2)cc1; Gln(3R-OH) = NC(=O)C[C@@H](O)[C@H](N)C(=O)O; Hyp = O=C(O)[C@@H]1C[C@@H](O)CN1

Assays:
[1] = MCFG concentrations in the burn eschar of severe burn patients; format: in vivo, human; details: patients with severe burn injuries; conclusion in words
Method: Eight severe burn patients within 14 days after injuries (M:F = 5:3, 19 to 85 years old, 35 to 85% total body surface area) were treated with MCFG (200 to 300 mg, 3.45 to 4.49 mg/kg) once daily by intravenous infusion over 1 hour. The MCFG concentrations in the plasma at the end of the initial administration of MCFG (P1), just before the second dosing (T1), at the end of the fourth dosing (P4), and just before the fifth dosing (T4) were determined, and were compared with the reported values in health volunteers. MCFG concentrations in the burn eschar at T1 and T4 were also measured.

[2] = cited from earlier work
Method: The plasma concentrations of MCFG per dose normalized with body weight (C/D) at P1, T1, P4, and T4 were 1.37 to 6.28, 0.51 to 1.38, 3.20 to 6.46, and 0.65 to 2.18 (μg/ml)/(mg/kg), respectively, indicating marked interindividual differences. […] The MCFG concentrations in the burn eschar of three patients at T1 and T4 were <0.1 to 3.98 and 1.10 to 14.81 μg/ml, respectively. Most of MCFG concentrations in the plasma and burn eschar were higher than the reported MIC90 of MCF ...

## CCCCCOc1ccc(-c2cc(-c3ccc(C(=O)N[C@H]4C[C@@H](O)[C@@H](O)NC(=O)[C@@H]5[C@@H](O)[C@@H](C)CN5C(=O)[C@H]([C@H](O)CC(N)=O)NC(=O)[C@H]([C@H](O)[C@@H](O)c5ccc(O)c(OS(=O)(=O)O)c5)NC(=O)[C@@H]5C[C@@H](O)CN5C(=O)[C@H]([C@@H](C)O)NC4=O)cc3)no2)cc1 [MCFG, Micafungin] (X1-[Orn(4R-OH,5R-OH)]T[Hyp][hTyr(3S-OH,4S-OH,3'-OSO3H)][Gln(3R-OH)][Pro(3S-OH,4S-Me)]; lactam 1-C)
[1]
  penetration into burn eschar: capable of penetrating burn eschar
[2]; P1 = end of the initial administration
  plasma C/D at P1, reported value in healthy volunteers: 5.7 (μg/ml)/(mg/kg)
[2]; T1 = just before the second dosing
  plasma C/D at T1, reported value in healthy volunteers: 1.3 (μg/ml)/(mg/kg)
[2]; T4 = just before the fifth dosing
  plasma C/D at T4, reported value in healthy volunteers: 2.1 (μg/ml)/(mg/kg)
